Patent US12213957B2, “Use of aminoacetonitrile compounds for the treatment of infection and disease” (PITNEY PHARMACEUTICALS PTY LIMITED, priority 2020, dated 2025)
Values joined by “and” are separate entries in the source; they are usually repeats but may differ in a detail not shown here. Equal values may be shown once. Read-outs that look alike come from different tables or passages of the source.

Key:
[1] = Blood plasma levels in pet dogs of the veterinary trial; format: in vivo, dog; conditions: pet dogs, monepantel 179 mg/kg bw daily; one value per dog
Experimental: In a Phase 2 veterinary clinical trial, monepantel was administered as tablets daily to six pet dog patients (dog identification numbers: 001-001, 001-002, 001-003, 003-001, 004-002 and 004-003) with treatment naïve B cell lymphoma at a target dose of 179 mg/kg bw. Superficial tumour lesions were measured with calipers, while lesions within the body were assessed by X-Ray, ultrasound, computer tomography (CT) and/or physical palpitation. Baseline Day 0 (D0) predose caliper, X-Ray, ultrasound and CT measurements where available as well as a complete physical examination were recorded.
An inverse correlation between RECIST1.1 response and blood plasma levels of monepantel and monepantel sulfone was evident. The one dog (003-001) that achieved a partial response, recorded monepantel and […] of 0.1 and 6.7 μM, respectively.

[2] = Blood plasma levels in human patients; format: in vivo; conditions: monepantel as Zolvix 5 mg/kg bw daily
Experimental: In a Phase 1 b clinical trial, monepantel administered as Zolvix daily to four human patients (PA02, PA04, PA06 and PA07) at 5 mg/kg bw provided an anticancer effect by computerised tomography (CT) scanning according to RECIST1.1 criteria. […] Evidence of mTOR pathway signalling inhibition in these patients was supported by the finding of decreased eurkaryotic translation initiation factor 4E-binding protein 1 (EIF-4EBP1) phosphorylation levels from the preparations of PBMCs from PA02, PA04 and PA06 (FIG. 1B). EIF-4EIBP1 phosphorylation levels were not assayed from preparations of PBMCs from PA07.
Blood plasma monepantel and monepantel sulfone levels of all four patients were recorded at intervals throughout treatment (Table 2).

[3] = tested on: SARS-CoV-2; format: cell-based; conditions: 40 μM and 8 μM compared to 0.064 μM, p<0.001
[4] = tested on: SARS-CoV-2; format: cell-based
[5] = tested on: SARS-CoV-2; format: cell-based; conditions: Calu-3 human cells, concentrations from 3.00 μM down to 0.013 μM
[6] = tested on: VERO cells infected with SARS-CoV-2; format: cell-based; conditions: approximately 10 μM MPLS
[7] = tested on: VERO cells
[8] = tested on: CHO cells; conditions: no virus, read-out: CHO and cell 1050 values for MPLS treatment alone; cited from earlier work

## C[C@](C#N)(COc1cc(C#N)ccc1C(F)(F)F)NC(=O)c1ccc(S(=O)(=O)C(F)(F)F)cc1 [MPLS, monepantel sulfone]
[1]
  Blood plasma Monepantel sulfone Day 24: 26.1 µM
[2]; 0.25 h, average of patients
  Blood plasma level of monepantel sulfone, Average: 0.00 ∞M
[2]; 0.25 h, individual patients
  Blood plasma level of monepantel sulfone: 0 ng/ml (3×) and 5.4 ng/ml
[2]; 0.5 h, average of patients
  Blood plasma level of monepantel sulfone, Average: 0.05 ∞M
[2]; 0.5 h, individual patients
  Blood plasma level of monepantel sulfone: 8.63 ng/mL and 37.5 ng/mL and 32.1 ng/mL and 13.1 ng/mL
[2]; 1 h, average of patients
  Blood plasma level of monepantel sulfone, Average: 0.29 ∞M
[2]; 1 h, individual patients
  Blood plasma level of monepantel sulfone: 65.5 ng/mL and 152 ng/mL and 252 ng/mL and 125 ng/mL
[2]; 2 h, average of patients
  Blood plasma level of monepantel sulfone, Average: 0.86 ∞M
[2]; 2 h, individual patients
  Blood plasma level of monepantel sulfone: 266 ng/mL and 482 ng/mL and 639 ng/mL and 360 ng/mL
[2]; 4 h, average of patients
  Blood plasma level of monepantel sulfone, Average: 1.77 ∞M
[2]; 4 h, individual patients
  Blood plasma level of monepantel sulfone: 1050 ng/mL and 663 ng/mL and 1140 ng/mL
[2]; 8 h, average of patients
  Blood plasma level of monepantel sulfone, Average: 1.13 ∞M
[2]; 8 h, individual patients
  Blood plasma level of monepantel sulfone: 637 ng/mL and 398 ng/mL and 689 ng/mL
[2]; 12 h, average of patients
  Blood plasma level of monepantel sulfone, Average: 0.68 ∞M
[2]; 12 h, individual patients
  Blood plasma level of monepantel sulfone: 276 ng/mL and 348 ng/mL and 351 ng/mL
[2]; 24 h, average of patients
  Blood plasma level of monepantel sulfone, Average: 0.45 ∞M
[2]; 24 h, individual patients
  Blood plasma level of monepantel sulfone: 179 ng/mL and 258 ng/mL and 214 ng/mL
[2]; pre-dose D3, average of patients
  Blood plasma level of monepantel sulfone, Average: 267.8 ng/ml and 0.53 ∞M
[2]; pre-dose D3, individual patients
  Blood plasma level of monepantel sulfone: 269 ng/mL and 240 ng/mL and 285 ng/mL and 277 ng/mL
[2]; pre-dose D4, average of patients
  Blood plasma level of monepantel sulfone, Average: 272.3 ng/ml and 0.54 ∞M
[2]; pre-dose D4, individual patients
  Blood plasma level of monepantel sulfone: 291 ng/ml (2×) and 231 ng/ml and 276 ng/ml
[2]; pre-dose D5, average of patients
  Blood plasma level of monepantel sulfone, Average: 238.3 ng/ml and 0.47 ∞M
[2]; pre-dose D5, individual patients
  Blood plasma level of monepantel sulfone: 233 ng/mL and 229 ng/mL and 250 ng/mL and 241 ng/mL
[2]; pre-dose D6, average of patients
  Blood plasma level of monepantel sulfone, Average: 214.3 ng/ml and 0.42 ∞M
[2]; pre-dose D6, individual patients
  Blood plasma level of monepantel sulfone: 232 ng/mL and 205 ng/mL and 216 ng/mL and 204 ng/mL
[2]; pre-dose D7, average of patients
  Blood plasma level of monepantel sulfone, Average: 205.0 ng/ml and 10.41 ∞M
[2]; pre-dose D7, individual patients
  Blood plasma level of monepantel sulfone: 215 ng/mL and 188 ng/mL and 235 ng/mL and 182 ng/mL
[2]; pre-dose D14, average of patients
  Blood plasma level of monepantel sulfone, Average: 148.0 ng/ml and 0.29 ∞M
[2]; pre-dose D14, individual patients
  Blood plasma level of monepantel sulfone: 158 ng/mL and 131 ng/mL and 154 ng/mL and 149 ng/mL
[2]; pre-dose D21, average of patients
  Blood plasma level of monepantel sulfone, Average: 147.0 ng/ml and 0.29 ∞M
[2]; pre-dose D21, individual patients
  Blood plasma level of monepantel sulfone: 157 ng/mL and 146 ng/mL and 138 ng/mL
[2]; pre-dose D28, average of patients
  Blood plasma level of monepantel sulfone, Average: 154.3 ng/ml and 0.31 ∞M
[2]; pre-dose D28, individual patients
  Blood plasma level of monepantel sulfone: 180 ng/mL and 162 ng/mL and 121 ng/mL
[2]; plasma, oral, 5 mg/kg bw, 0.25 h, average of patients, read-out: Blood plasma level of monepantel sulfone, Average
  concentration at 0.25 h: 1.4 ng/mL
[2]; plasma, oral, 5 mg/kg bw, 0.5 h, average of patients, read-out: Blood plasma level of monepantel sulfone, Average
  concentration at 0.5 h: 22.8 ng/mL
[2]; plasma, oral, 5 mg/kg bw, 1 h, average of patients, read-out: Blood plasma level of monepantel sulfone, Average
  concentration at 1 h: 149 ng/mL
[2]; plasma, oral, 5 mg/kg bw, 2 h, average of patients, read-out: Blood plasma level of monepantel sulfone, Average
  concentration at 2 h: 437 ng/mL
[2]; plasma, oral, 5 mg/kg bw, 4 h, average of patients, read-out: Blood plasma level of monepantel sulfone, Average
  concentration at 4 h: 896 ng/mL
[2]; plasma, oral, 5 mg/kg bw, 4 h, individual patients, read-out: Blood plasma level of monepantel sulfone
  concentration at 4 h: 732 ng/mL
[2]; plasma, oral, 5 mg/kg bw, 8 h, average of patients, read-out: Blood plasma level of monepantel sulfone, Average
  concentration at 8 h: 572 ng/mL
[2]; plasma, oral, 5 mg/kg bw, 8 h, individual patients, read-out: Blood plasma level of monepantel sulfone
  concentration at 8 h: 565 ng/mL
[2]; plasma, oral, 5 mg/kg bw, 12 h, average of patients, read-out: Blood plasma level of monepantel sulfone, Average
  concentration at 12 h: 346 ng/mL
[2]; plasma, oral, 5 mg/kg bw, 12 h, individual patients, read-out: Blood plasma level of monepantel sulfone
  concentration at 12 h: 409 ng/mL
[2]; plasma, oral, 5 mg/kg bw, 24 h, average of patients, read-out: Blood plasma level of monepantel sulfone, Average
  concentration at 24 h: 226 ng/mL
[2]; plasma, oral, 5 mg/kg bw, 24 h, individual patients, read-out: Blood plasma level of monepantel sulfone
  concentration at 24 h: 254 ng/mL
[3]
  SARS-CoV-2 RNA concentration in the media (qPCR): significantly decreased
[4]; MPLS 11.11 μM (highest concentration), VERO cells
  SARS-CoV-2 infectivity (TCID50, repeat experiment) compared to no treatment: significantly reduces SARS-CoV-2 infectivity
[4]; MPLS 8 and 40 μM, strong trend
  pathogenicity of VERO cell culture media following infection (TCID50): reduce the pathogenicity
[5]
  SARS-CoV-2 infectivity (TCID50): reduced SARS-CoV-2 infectivity
[6]
  protection against cell death following infection with SARS-CoV-2: almost completely protected VERO cell against cell death
[7]
  toxic effect upon VERO cells infected with SARS-CoV-2 (LDH): minimal toxic effect
  toxicity caused by SARS-CoV-2: appeared to increase toxicity
  toxicity of VERO cells to SARS-CoV-2 infection: may slightly increase toxicity
  toxicity to VERO cells: no signs of toxicity
  toxicity to uninfected VERO cells: some toxicity
[7]; African green monkey
  SARS-CoV-2 toxicity: does not apparently increase SARS-CoV-2 toxicity
[8]
  IC50: 74 µM
